In patent publication US11390631B1, “Benzodiazepine derivatives as RSV inhibitors” (priority 2015, dated 2022) one finds EC50 data, which are given here for 27 compounds.

In this assay the test system is Human RSV-A (“Long” strain). Nature of the assay: RSV-A assay: inhibition of cytopathic effect in Hep-2 cells, ATPlite readout. In kind it is cell-based, Human respiratory syncytial virus (HRSV). Particulars: human respiratory syncytial virus, HEp-2, 120 h, read-out: Human RSV-A (“Long” strain) EC50. An excerpt: Hep-2 cells, (originally derived from tumors grown in irradiated-cortisonised weanling rats that had been injected with epidermoid carcinoma tissue from a person's larynx, but later found to be indistinguishable from HeLa cells by PCR DNA analysis), were used for the culturing of genotype A, “Long” strain RSV. Flasks were inoculated with RSV and viral stocks were collected once cytopathic effect (CPE) was greater than 90%. Viral stocks in 25% sucrose media were snap frozen using liquid nitrogen to increase viral stability. Viral stock titers were quantified by tissue culture infectious dose 50% (TCID50) using 8,000 cells per well and 3-fold viral dilutions across a 96-well plate, cultured for 4 days. Viral stock titers were also quantified by a plaque forming unit assay, as described elsewhere.
Following extensive parameter testing, the final assay is run as follows: Hep-2 cells are seeded into the inner 60 wells of a 96-well plate at 8,000 cells per well in a volume of 50 μL using Growth Media (DMEM without phenol red, 1% L-Glut, 1% Penn/Strep, 1% nonessential amino acids, 10% heat-inactivated FBS). 2-fold serial dilutions of control and test compounds are added to the wells in duplicate in a total volume of 25 μL. Viral stock is then added to the wells at a multiplicity of infection (MOI) of 0.1 in a volume of 25 μL, bringing the total volume of each well to 100 μL. The MOI is calculated using the PFU/mL, or TCID50 if unavailable. Each 96-well plate has a control column of 6 wells with cells and virus but no compound (negative control, max CPE), a column with cells but no compound or virus (positive control, minimum CPE), and a column with no cells or virus or compound (background plate/reagent control). The control wells with cells but no virus are given an additional 25 uL of growth media containing an equal quantity of sucrose as those wells receiving the viral stock in order to keep consistent in media and volume conditions. The outer wells of the plate are filled with 125 μL of moat media (DMEM, 1% Penn/Strep) to act as a thermal and evaporative moat around the test wells. Following a 5-day incubation period, the plates are read using ATPlite (50 uL added per well), which quantifies the amount of ATP (a measure of cell health) present in each well. Assay plates are read using the Envision luminometer. In parallel, cytotoxicity is examined on an additional 96-well plate treated in an identical manner, but substituting the 25 μL of viral stock for 25 μL of growth media. […] EC50 ranges are as follows: A<0.4 μM; B 0.4-0.8 μM; C>0.8 μM and CC50 ranges are as follows: A>50 μM; B 10-50 μM; C<10 μM.
Background: Protection from cytopathic effect is a common read-out in antiviral testing.

The EC50 is the concentration at which the effect is half-maximal. Regarding `CN1CCC(N2CCC[C@H]2c2nnc(NC3N=C(c4ccccc4)c4ccccc4NC3=O)o2)CC1` (stereo partly drawn) [Example 228], the EC50 is more than 0.8 µM. The value for `COCCOc1ccccc1-c1nnc(NC2N=C(c3ccccc3)c3ccccc3NC2=O)o1` (stereo not drawn) [Example 229] was more than 0.8 µM; that for `CC1(Nc2nnc(-c3ccc(F)cc3)o2)N=C(c2ccccc2)c2ccccc2NC1=O` (stereo not drawn) [Example 230] was more than 0.8 µM; that for `O=C1Nc2ccccc2C(c2ccccc2)=NC1Nc1nnc(-c2ccc(-n3ccnc3)cc2)o1` (stereo not drawn) [Example 231] was less than 0.4 µM. The value for `O=C1Nc2ccccc2C(c2ccccc2)=NC1Nc1nnc(-c2ccc(-n3ccnc3)nc2)o1` (stereo not drawn) [Example 232] was more than 0.8 µM; that for `O=C1Nc2ccccc2C(c2ccccc2)=NC1Nc1nnc(-c2ccc(-n3cnnc3)cc2)o1` (stereo not drawn) [Example 233] was more than 0.8 µM.

Regarding `CN(C)CCOc1ccccc1-c1nnc(NC2N=C(c3ccccc3)c3ccccc3NC2=O)o1` (stereo not drawn) [Example 234], the EC50 was more than 0.8 µM. The value for `O=C1Nc2ccccc2C(c2ccccc2)=NC1Nc1nnc(-c2ccccc2NCc2ccccn2)o1` (stereo not drawn) [Example 235] was more than 0.8 µM. Take `COCCOc1ccc(-c2nnc(NC3N=C(c4ccccc4)c4ccccc4NC3=O)o2)cc1` (stereo not drawn) [Example 236]: the EC50 was more than 0.8 µM. The value for `CN1CCN(c2ncccc2-c2nnc(NC3N=C(c4ccccc4)c4ccccc4NC3=O)o2)CC1` (stereo not drawn) [Example 237] was more than 0.8 µM; that for `CN[C@H](c1ccccc1)c1nnc(NC2N=C(c3ccccc3)c3ccccc3NC2=O)o1` (stereo partly drawn) [Example 238] was more than 0.8 µM; that for `O=C1Nc2ccccc2C(c2ccccc2)=NC1Nc1nnc(-c2ccccc2OC2CCOCC2)o1` (stereo not drawn) [Example 239] was more than 0.8 µM.

As for `O=C1Nc2ccccc2C(c2ccccc2)=NC1Nc1nnc(-c2ccccc2N2CCS(=O)(=O)CC2)o1` (stereo not drawn) [Example 240], the EC50 is more than 0.8 µM.

Turning to `O=C1Nc2ccccc2C(c2ccccc2)=NC1Nc1nnc(-c2cccnc2N2CCCCC2)o1` (stereo not drawn) [Example 241], the EC50 was more than 0.8 µM.

In the case of `C[C@@H]1CN(c2ccc(-c3nnc(N[C@H]4N=C(c5ccccc5)c5ccccc5NC4=O)o3)c(Cl)c2)C[C@H](C)O1` [Example 243], the EC50 was more than 0.8 µM. For `O=C1Nc2ccccc2C(c2ccccc2)=N[C@@H]1Nc1nnc(-c2ccc(N3C4CCC3COC4)cc2Cl)o1` [Example 244] the value was more than 0.8 µM; for `O=C1Nc2ccccc2C(c2ccccc2)=NC1Nc1nnc(-c2cccnc2N2CCCC(F)(F)C2)o1` (stereo not drawn) [Example 246], more than 0.8 µM; for `CO[C@H]1CCN(c2ncccc2-c2nnc(NC3N=C(c4ccccc4)c4ccccc4NC3=O)o2)C1` (stereo partly drawn) [Example 247], more than 0.8 µM. The value for `O=C1Nc2ccccc2C(c2ccccc2)=NC1Nc1nnc(-c2cccnc2N2C[C@@H]3C[C@H]2CO3)o1` (stereo partly drawn) [Example 248] was more than 0.8 µM; that for `COC1CCN(c2ncccc2-c2nnc(NC3N=C(c4ccccc4)c4ccccc4NC3=O)o2)CC1` (stereo not drawn) [Example 254] was more than 0.8 µM; that for `O=C1Nc2ccccc2C(c2ccccc2)=NC1Nc1nnc(-c2cccnc2N2CCC(O)CC2)o1` (stereo not drawn) [Example 255] was more than 0.8 µM. The value for `O=C1Nc2ccccc2C(c2ccccc2)=NC1Nc1nnc(-c2cccnc2N2CCC(F)CC2)o1` (stereo not drawn) [Example 256] was more than 0.8 µM; that for `COC1CN(c2ncccc2-c2nnc(NC3N=C(c4ccccc4)c4ccccc4NC3=O)o2)C1` (stereo not drawn) [Example 258] was more than 0.8 µM. Take `O=C1Nc2ccccc2C(c2ccccc2)=NC1Nc1nnc(-c2cccnc2N2CC(F)(F)C2)o1` (stereo not drawn) [Example 259]: the EC50 was more than 0.8 µM.

As to `N#CC1CCN(c2ncccc2-c2nnc(NC3N=C(c4ccccc4)c4ccccc4NC3=O)o2)CC1` (stereo not drawn) [Example 260], the EC50 is more than 0.8 µM. With `C[C@H]1COCCN1c1ncccc1-c1nnc(NC2N=C(c3ccccc3)c3ccccc3NC2=O)o1` (stereo partly drawn) [Example 261], the EC50 was more than 0.8 µM.

On to `C[C@@H]1CN(c2ncccc2-c2nnc(NC3N=C(c4ccccc4)c4ccccc4NC3=O)o2)CCO1` (stereo partly drawn) [Example 262], for which the EC50 was more than 0.8 µM.
